Read-outs that look alike come from different tables or passages of the source.
Assays:
[1] = Aspect and pH on storage of S-acid solutions salified with KOH, Arg or TEA with sulfate or sulfonate surfactant (Example 3); assay type: physicochemical; set-up: key to Aspect (macroscopic observation) 15 days 4° C. / Aspect (macroscopic observation) 15 days RT: *: showed a precipitate; conditions: S-acid 4.00% MA
Method: The compositions of Table 3 above were prepared according to the following operating procedure:
Phase A was heated to 40° C. After solubilization of the S-acid, the phase B was added to the Phase A. Next, the phase C was added after phase B.
A portion of the solution was stored at room temperature and the other one at 4° C.

[2] = cited from earlier work
[3] = Aspect and pH on storage of spiculisporic acid solutions pre-solubilized with KOH, alone or with surfactants (Example 2); assay type: physicochemical
Excerpt: Solutions containing the S-acid at 4% or 8% (neutralized with an amount of KOH calculated so as to obtain the di-potassium salt of S-acid, i.e. R1=2) and surfactants, were made.

[4] = sulfate surfactant 4.00% MA, base Arg, R 1.10
[5] = sulfate surfactant 4.00% MA, base Arg, R 1.25
[6] = sulfate surfactant 4.00% MA, base Arg, R 1.75
[7] = sulfate surfactant 4.00% MA, base Arg, R 2.00
[8] = sulfate surfactant 4.00% MA, base KOH, R 2.00
[9] = sulfate surfactant 4.00% MA, base TEA, R 1.10
[10] = sulfate surfactant 4.00% MA, base TEA, R 1.25
[11] = sulfate surfactant 4.00% MA, base TEA, R 1.75
[12] = sulfate surfactant 4.00% MA, base TEA, R 2.00
[13] = sulfonate surfactant 4.00% MA, base Arg, R 1.10
[14] = sulfonate surfactant 4.00% MA, base Arg, R 1.25
[15] = sulfonate surfactant 4.00% MA, base Arg, R 1.75
[16] = sulfonate surfactant 4.00% MA, base Arg, R 2.00
[17] = sulfonate surfactant 4.00% MA, base KOH, R 2.00
[18] = sulfonate surfactant 4.00% MA, base TEA, R 1.10
[19] = sulfonate surfactant 4.00% MA, base TEA, R 1.25
[20] = sulfonate surfactant 4.00% MA, base TEA, R 1.75
[21] = sulfonate surfactant 4.00% MA, base TEA, R 2.00
[22] = S-acid 4% MA, KOH (R=2), named surfactant 4% if any

Q: Which “pH 15 days 4° C.” value [1, 4] does the source give for `CCCCCCCCCCC(C(=O)O)C1(C(=O)O)CCC(=O)O1` (stereo not drawn) [S-acid, 4,5-dicarboxy-4-pentadecanolide] here?
A: The value was 5.19.

Q: What about the “pH 15 days RT” value [1, 4] of the same compound?
A: Its value is 5.11.

Q: What about the “pH 15 days 4° C.” value [1, 5] of the same compound?
A: The value was 5.33.

Q: And the “pH 15 days RT” value [1, 5]?
A: Its value is 5.34.

Q: What about the “pH 15 days 4° C.” value [1, 6] of the same compound?
A: Its value is 5.93.

Q: What about the “pH 15 days RT” value [1, 6] of the same compound?
A: Its value is 5.95.

Q: And the “pH 15 days 4° C.” value [1, 7]?
A: Its value is 6.25.

Q: And the “pH 15 days RT” value [1, 7]?
A: Its value is 6.21.

Q: What about the “Aspect (macroscopic observation) 15 days 4° C.” value [1, 8] of the same compound?
A: Its value is “*”.

Q: And the “Aspect (macroscopic observation) 15 days RT” value [1, 8]?
A: The value was “*”.

Q: And the “pH 15 days 4° C.” value [1, 8]?
A: The value was 6.24.

Q: What about the “pH 15 days RT” value [1, 8] of the same compound?
A: The value was 6.33.

Q: And the “pH 15 days 4° C.” value [1, 9]?
A: The value was 5.26.

Q: What about the “pH 15 days RT” value [1, 9] of the same compound?
A: The value was 5.19.

Q: And the “pH 15 days 4° C.” value [1, 10]?
A: The value was 5.38.

Q: And the “pH 15 days RT” value [1, 10]?
A: Its value is 5.39.

Q: What about the “pH 15 days 4° C.” value [1, 11] of the same compound?
A: The value was 6.02.

Q: And the “pH 15 days RT” value [1, 11]?
A: Its value is 5.98.

Q: What about the “pH 15 days 4° C.” value [1, 12] of the same compound?
A: The value was 6.32.

Q: What about the “pH 15 days RT” value [1, 12] of the same compound?
A: The value was 6.32.

Q: And the “pH 15 days 4° C.” value [1, 13]?
A: Its value is 5.07.

Q: And the “pH 15 days RT” value [1, 13]?
A: Its value is 5.00.

Q: And the “pH 15 days 4° C.” value [1, 14]?
A: Its value is 5.28.

Q: What about the “pH 15 days RT” value [1, 14] of the same compound?
A: Its value is 5.27.

Q: And the “pH 15 days 4° C.” value [1, 15]?
A: Its value is 5.89.

Q: What about the “pH 15 days RT” value [1, 15] of the same compound?
A: The value was 5.93.

Q: What about the “pH 15 days 4° C.” value [1, 16] of the same compound?
A: Its value is 6.19.

Q: What about the “pH 15 days RT” value [1, 16] of the same compound?
A: Its value is 6.18.

Q: What about the “Aspect (macroscopic observation) 15 days 4° C.” value [1, 17] of the same compound?
A: The value was “*”.

Q: And the “pH 15 days 4° C.” value [1, 17]?
A: The value was 6.34.

Q: And the “pH 15 days RT” value [1, 17]?
A: Its value is 6.43.

Q: And the “pH 15 days 4° C.” value [1, 18]?
A: The value was 5.22.

Q: What about the “pH 15 days RT” value [1, 18] of the same compound?
A: Its value is 5.17.

Q: What about the “pH 15 days 4° C.” value [1, 19] of the same compound?
A: Its value is 5.37.

Q: And the “pH 15 days RT” value [1, 19]?
A: The value was 5.33.

Q: What about the “pH 15 days 4° C.” value [1, 20] of the same compound?
A: Its value is 5.96.

Q: What about the “pH 15 days RT” value [1, 20] of the same compound?
A: Its value is 5.97.

Q: What about the “pH 15 days 4° C.” value [1, 21] of the same compound?
A: Its value is 6.34.

Q: And the “pH 15 days RT” value [1, 21]?
A: The value was 6.33.

Q: And the Solubility in water ([2]; high temperature)?
A: The Solubility in water was “partly soluble”.

Q: And the Solubility in ethanol ([2]; room temperature)?
A: The Solubility in ethanol was “soluble”.

Q: What about the Solubility in fats ([2]; room temperature) of the same compound?
A: The Solubility in fats was “insoluble”.

Q: What about the Solubility in water ([2]; room temperature) of the same compound?
A: The Solubility in water was “insoluble”.

Q: What about the “pH t0 RT” value ([3]; S-acid 4% MA, KOH (R=2), named surfactant 4% active material if any) of the same compound?
A: Its value is 5.97.

Q: And the “pH 20 days after storage T = 4° C.” value [3, 22]?
A: Its value is 6.01.

Q: What about the “pH 20 days after storage RT” value [3, 22] of the same compound?
A: The value was 6.02.

Q: And the “Aspect after 20 days of storage at 4° C.” value ([3]; S-acid 4%, KOH (R=2), surfactant 4% if any)?
A: Its value is “precipitation”.

Q: What about the “pH 20 days after storage T = 4° C.” value ([3]; S-acid 8% MA, KOH (R=2)) of the same compound?
A: Its value is 6.47.

Q: What about the “pH 20 days after storage RT” value ([3]; S-acid 8% MA, KOH (R=2)) of the same compound?
A: The value was 6.47.

Q: What about the “pH t0 RT” value ([3]; S-acid 8% MA, neutralized with KOH (R=2)) of the same compound?
A: Its value is 6.43.

Q: What about the “Aspect after 20 days of storage at 4° C.” value ([3]; S-acid 8%, KOH (R=2)) of the same compound?
A: Its value is “precipitation”.

— patent US10709653B2, “Cosmetic compositions comprising spiculisporic acid and at least one sulfate and/or sulfonate surfactant” (L'OREAL, priority 2013, dated 2020)
